Patent US20140039044A1, “Hydroxylated Polymethoxyflavone Compositions” (WLLGEN, INC., priority 2006, published 2014)
Where two headings read alike, the source gives them in different places.

How the values were obtained:
Type in all cases: cell-based, human
AGS cells = experiment: Apoptotic ratio by propidium iodide flow cytometry (AC50); details: Homo sapiens, AGS cells
Description: (§1) The human cancer cells (2×10^5) were cultured in 60-mm Petri dishes and incubated for 24 h. After treated with test compounds for 24 h, the cells were then harvested, washed with PBS resuspended in 200 μL of PBS, and fixed in 800 μL of iced 100% ethanol at −20° C. After being left to stand overnight, the cell pellets were collected by centrifugation, resuspended in 1 mL of hypotonic buffer (0.5% Triton X-100 in PBS and 0.5 μg/mL RNase) and incubated at 37° C. for 30 min. Next, 1 mL of propidium iodide solution (50 μg/mL) was added, and the mixture was allowed to stand on ice for 30 min. Fluorescence emitted from the propidium iodide-DNA complex was quantitated after excitation of the fluorescent dye by FACScan cytometry (Becton Dickinson, San Jose, Calif.).
(§2) 1 N PMF and 6 N PMF compositions containing hydroxylated PMFs, prepared as described in Section 8.3 above, 70% PMF OPE and 5,6,7,8,3′,4′-hexamethoxyflavone (nobiletin) were tested for antiproliferative activity and apoptosis-inducing activity in HL-60, AGS and COLO205 cells as described in Section 8.4 above. Antiproliferative and apoptosis-inducing activities were derived as IC50 values and AC50, values, respectively, where AC50 is the concentration required for 50% apoptosis.
(§3) The PMF compounds were assayed in vitro for cell growth inhibition and for their ability to induce apoptosis in various human cancer cells, including HL-60, AGS, COLO 205, and HT-29 cells, using methods described in Section 8.4 above. Antiproliferative (IC50) and apoptosis-inducing activity (AC50) of PMFs in the HL-60, AGS, COLO 205, and HT-29 cells are reported in Table 9, where *P<0.05, **P<0.01 and ***P<0.001 indicate statistically significant differences from the control group.

COLO205 cells = experiment: as above; details: Homo sapiens, COLO 205, COLO205 cells
Description: as §1, §2, §3

HL-60 cells [1] = experiment: as above; details: Homo sapiens, HL-60 cells
Description: as §1, §2, §3

HT-29 cells [2] = experiment: as above; details: Homo sapiens, read-out: Apoptosis-inducing AC50
Description: as §1, §3

HL-60 cells [3] = experiment: Cell cycle distribution by flow cytometry; details: 24 h
Description: as §1
The effects of the hydrolyzed PMF-enriched compositions, nobiletin and 70% PMF OPE on cell cycle distribution were studied, following the procedures described in Section 8.4. Results for cell cycle distribution in HL-60 cells, COLO205 cells and AGS cells are provided in Table 5, Table 6 and Table 7, respectively. […] In HL-60 cells, G2/M arrest predominated in cells treated with 6N PMF concentrations ≧5 μM and with 1N PMF concentrations ≧25 μM.
(§4) Compounds A-K were evaluated in terms of their effects in arresting cell cycle progression by observing cell cycle phase distribution in cells treated with the compounds. Cells were treated with 5, 10, 25, 50, and 100 μM of one of compound A-K or DMSO (control) for 24 h and subjected to flow cytometric analysis after staining their DNA, as described above.

HT-29 cells [4] = experiment: Cell cycle distribution by flow cytometry; details: for Cell Cycle Distribution G0/G1 / Cell Cycle Distribution G2/M / Cell Cycle Distribution S: 24 h
Description: as §1, §4
Similar cell cycle phase distribution studies were performed in AGS, COLO205, and HT-29 cells in response to individual PMFs, with results reported in Tables 11, 12 and 13, respectively.

[5] = Table 4, read-out: Apoptosis-inducing AC50 (concentration required for 50% apoptosis)
[6] = read-out: Apoptosis-inducing AC50

## COc1ccc(-c2cc(=O)c3c(OC)c(OC)c(OC)c(OC)c3o2)cc1OC [Compound A, 5,6,7,8,3′,4′-hexamethoxyflavone, reference compound]
AGS cells; [5]
  AC50: > 100 µg/mL
AGS cells; [6]
  AC50: > 100 µM
COLO205 cells; [5]
  AC50: > 100 µg/mL
COLO205 cells; [6]
  AC50: > 100 µM
HL-60 cells [1]; [5]
  AC50: > 100 µg/mL
HL-60 cells [1]; [6]
  AC50: > 100 µM
HT-29 cells [2]
  AC50: > 100 µM
HL-60 cells [3]; 5 μM, Table 5
  Cell Cycle Distribution G0/G1: 45.81 ± 0.16
  Cell Cycle Distribution G2/M: 0.02 ± 0.01
  Cell Cycle Distribution S: 54.29 ± 0.01
HL-60 cells [3]; 5 μM, Table 10
  Cell Cycle Distribution G0/G1: 41.42 ± 0.14
  Cell Cycle Distribution G2/M: 8.15 ± 0.49
  Cell Cycle Distribution S: 50.73 ± 0.42
HL-60 cells [3]; 10 μM, Table 5
  Cell Cycle Distribution G0/G1: 53.84 ± 0.45
  Cell Cycle Distribution G2/M: 5.73 ± 1.50
  Cell Cycle Distribution S: 40.44 ± 1.06
HL-60 cells [3]; 10 μM, Table 10
  Cell Cycle Distribution G0/G1: 50.36 ± 1.06
  Cell Cycle Distribution G2/M: 2.75 ± 0.57
  Cell Cycle Distribution S: 46.88 ± 0.28
HL-60 cells [3]; 25 μM, Table 5
  Cell Cycle Distribution G0/G1: 61.96 ± 3.55
  Cell Cycle Distribution G2/M: 5.93 ± 0.49
  Cell Cycle Distribution S: 32.12 ± 4.04
HL-60 cells [3]; 25 μM, Table 10
  Cell Cycle Distribution G0/G1: 66.18 ± 0.71
  Cell Cycle Distribution G2/M: 2.77 ± 0.85
  Cell Cycle Distribution S: 31.06 ± 0.99
HL-60 cells [3]; 50 μM, Table 5
  Cell Cycle Distribution G0/G1: 62.37 ± 1.85
  Cell Cycle Distribution G2/M: 6.44 ± 0.08
  Cell Cycle Distribution S: 31.20 ± 1.76
HL-60 cells [3]; 50 μM, Table 10
  Cell Cycle Distribution G0/G1: 64.40 ± 0.49
  Cell Cycle Distribution G2/M: 7.67 ± 0.57
  Cell Cycle Distribution S: 27.93 ± 0.35
HL-60 cells [3]; 100 μM, Table 5
  Cell Cycle Distribution G0/G1: 65.00 ± 3.41
  Cell Cycle Distribution G2/M: 4.18 ± 0.33
  Cell Cycle Distribution S: 30.81 ± 3.08
HL-60 cells [3]; 100 μM, Table 10
  Cell Cycle Distribution G0/G1: 62.05 ± 0.14
  Cell Cycle Distribution G2/M: 7.35 ± 0.14
  Cell Cycle Distribution S: 30.60 ± 0.35
HL-60 cells [3]; 25-100 μM
  Cell cycle arrest, in words: significant G1 arrest
HT-29 cells [4]; 5 μM
  Cell Cycle Distribution G0/G1: 63.67 ± 0.14
  Cell Cycle Distribution G2/M: 8.22 ± 0.37
  Cell Cycle Distribution S: 28.12 ± 0.52
HT-29 cells [4]; 10 μM
  Cell Cycle Distribution G0/G1: 66.57 ± 0.66
  Cell Cycle Distribution G2/M: 7.45 ± 0.28
  Cell Cycle Distribution S: 26.98 ± 0.94
HT-29 cells [4]; 25 μM
  Cell Cycle Distribution G0/G1: 69.67 ± 1.15
  Cell Cycle Distribution G2/M: 7.58 ± 0.00
  Cell Cycle Distribution S: 22.76 ± 1.15
HT-29 cells [4]; 50 μM
  Cell Cycle Distribution G0/G1: 83.26 ± 0.46
  Cell Cycle Distribution G2/M: 4.97 ± 0.67
  Cell Cycle Distribution S: 11.79 ± 1.13
HT-29 cells [4]; 100 μM
  Cell Cycle Distribution G0/G1: 89.49 ± 0.57
  Cell Cycle Distribution G2/M: 5.60 ± 0.57
  Cell Cycle Distribution S: 4.92 ± 0.00
HT-29 cells [4]; 5-100 μM, 24 h exposure
  Cell cycle arrest, in words: significant accumulation of cells in G1 phase

## COc1cc(-c2cc(=O)c3c(O)c(OC)c(OC)c(OC)c3o2)cc(OC)c1OC [E, 5-hydroxy-6,7,8,3′,4′,5′-hexamethoxyflavone]
AGS cells; [6]
  AC50: > 100 µM
COLO205 cells; [6]
  AC50: > 100 µM
HL-60 cells [1]; [6]
  AC50: > 100 µM
HT-29 cells [2]
  AC50: > 100 µM
HL-60 cells [3]; 5 μM, Table 10
  Cell Cycle Distribution G0/G1: 40.16 ± 1.10
  Cell Cycle Distribution G2/M: 6.01 ± 1.64
  Cell Cycle Distribution S: 53.83 ± 0.54
HL-60 cells [3]; 10 μM, Table 10
  Cell Cycle Distribution G0/G1: 40.43 ± 2.14
  Cell Cycle Distribution G2/M: 5.57 ± 1.17
  Cell Cycle Distribution S: 54.01 ± 0.98
HL-60 cells [3]; 25 μM, Table 10
  Cell Cycle Distribution G0/G1: 41.35 ± 2.50
  Cell Cycle Distribution G2/M: 6.27 ± 1.05
  Cell Cycle Distribution S: 52.38 ± 1.46
HL-60 cells [3]; 50 μM, Table 10
  Cell Cycle Distribution G0/G1: 37.64 ± 1.09
  Cell Cycle Distribution G2/M: 7.73 ± 0.62
  Cell Cycle Distribution S: 54.64 ± 0.49
HL-60 cells [3]; 100 μM, Table 10
  Cell Cycle Distribution G0/G1: 42.95 ± 0.11
  Cell Cycle Distribution G2/M: 7.27 ± 0.84
  Cell Cycle Distribution S: 49.79 ± 0.95
HT-29 cells [4]; 5 μM
  Cell Cycle Distribution G0/G1: 57.96 ± 0.21
  Cell Cycle Distribution G2/M: 10.19 ± 0.07
  Cell Cycle Distribution S: 31.85 ± 0.14
HT-29 cells [4]; 10 μM
  Cell Cycle Distribution G0/G1: 57.86 ± 0.31
  Cell Cycle Distribution G2/M: 10.01 ± 0.46
  Cell Cycle Distribution S: 32.14 ± 0.78
HT-29 cells [4]; 25 μM
  Cell Cycle Distribution G0/G1: 59.20 ± 0.06
  Cell Cycle Distribution G2/M: 9.63 ± 0.69
  Cell Cycle Distribution S: 31.18 ± 0.74
HT-29 cells [4]; 50 μM
  Cell Cycle Distribution G0/G1: 58.95 ± 0.95
  Cell Cycle Distribution G2/M: 9.26 ± 0.16
  Cell Cycle Distribution S: 31.79 ± 1.12
HT-29 cells [4]; 100 μM
  Cell Cycle Distribution G0/G1: 61.79 ± 1.47
  Cell Cycle Distribution G2/M: 8.79 ± 1.23
  Cell Cycle Distribution S: 29.42 ± 0.24
